Experimental data taken from patent publication US20130029998A1, “Method of Detecting and Profiling Progression of the Risk of Neurodegenerative Diseases” (priority 2010, published 2013).

Columns and labels:
[1] = test system: Splotch homozygous (Sp−/−) embryos; test: Rescue of neural tube defect in Pax3 mutant Splotch mouse model of spina bifida; assay type: in vivo
[2] = test system: Splotch homozygous (Sp−/−) embryos; test: H3K27me2, H3K27me3 and KDM6B staining of neural tube explants from folate-rescued Splotch homozygous embryos; assay type: in vivo, mouse; conditions: folate-rescued Sp−/− embryos E10.0 (30 somite), neural crest cells of neural tube explants, compared with wild-type
Description: After 140 hours neural crest cells were allowed to differentiate in the absence of growth factor for 2 days. After differentiation, neural crest cells from wild-type and Sp−/− embryo explant cultures were stained with DAPI, H3K27me2, H3K27me3 and KDM6B antibodies (Abeam, Inc Cambridge, Mass. 02139-1517). DAPI, H3K27me2, H3K27me3 and KDM6B positive cells from five different explant cultures were counted and expressed as a percentage of DAPI positive cells. […] The protein loading control was ascertained with Ponseau S staining.

Nc1nc2ncc(CNc3ccc(C(=O)N[C@@H](CCC(=O)O)C(=O)O)cc3)nc2c(=O)[nH]1 [Folic acid, folic acid]
neural tube defect [1]: rescue of neural tube defect | H3K27me2 expression (positive cells as a percentage of DAPI positive cells) [2]: reversal to near wild-type expression | H3K27me3 expression (positive cells as a percentage of DAPI positive cells) [2]: reversal to near wild-type expression | KDM6B expression (positive cells as a percentage of DAPI positive cells) [2]: reversal to near wild-type expression | H3K27me2 expression (positive cells as a percentage of DAPI positive cells) ([2]; listed as folic acid): reversal
